What was measured:
[1] = xn = mol fraction of the nth substance listed; details: 101.3 kPa, Liquid, Vibrating tube method
[2] = molar heat capacity at constant pressure; xn = mol fraction of the nth substance listed; details: 101.3 kPa, Liquid, Small sample (50 mg) DSC

CCCCn1cc[n+](C)c1.COS(=O)(=O)[O-] [1-butyl-3-methylimidazolium methyl sulfate] + C[N+](=O)[O-]
Details | mass density, [1] [kg/m3] | molar heat capacity at constant pressure, [2] [J/K/mol]
293.15 K, x1 = 0.0522 | 1158.1 | 122.1
293.15 K, x1 = 0.1 | 1168.5 | 136.5
293.15 K, x1 = 0.1966 | 1182.1 | 166.4
293.15 K, x1 = 0.3059 | 1191.3 | 200.5
293.15 K, x1 = 0.4061 | 1196.9 | 231.4
293.15 K, x1 = 0.5025 | 1200.8 | 261.5
293.15 K, x1 = 0.5889 | 1203.5 | 288
293.15 K, x1 = 0.6844 | 1205.9 | 317.2
293.15 K, x1 = 0.7832 | 1207.8 | 347.4
293.15 K, x1 = 0.8654 | 1209.1 | 372.6
293.15 K, x1 = 0.9289 | 1210 | 392.1
298.15 K, x1 = 0.0522 | 1152.1 | 122.4
298.15 K, x1 = 0.1 | 1163 | 137
298.15 K, x1 = 0.1966 | 1177.3 | 167
298.15 K, x1 = 0.3059 | 1186.9 | 201.3
298.15 K, x1 = 0.4061 | 1192.8 | 232.5
298.15 K, x1 = 0.5025 | 1196.9 | 262.7
298.15 K, x1 = 0.5889 | 1199.8 | 289.4
298.15 K, x1 = 0.6844 | 1202.2 | 318.9
298.15 K, x1 = 0.7832 | 1204.3 | 349.2
298.15 K, x1 = 0.8654 | 1205.7 | 374.6
298.15 K, x1 = 0.9289 | 1206.7 | 394.3
303.15 K, x1 = 0.0522 | 1146.1 | 122.8
303.15 K, x1 = 0.1 | 1157.5 | 137.5
303.15 K, x1 = 0.1966 | 1172.4 | 167.7
303.15 K, x1 = 0.3059 | 1182.6 | 202.3
303.15 K, x1 = 0.4061 | 1188.7 | 233.6
303.15 K, x1 = 0.5025 | 1193 | 263.9
303.15 K, x1 = 0.5889 | 1196 | 290.9
303.15 K, x1 = 0.6844 | 1198.6 | 320.6
303.15 K, x1 = 0.7832 | 1200.8 | 351.1
303.15 K, x1 = 0.8654 | 1202.3 | 376.7
303.15 K, x1 = 0.9289 | 1203.3 | 396.5
308.15 K, x1 = 0.0522 | 1140.1 | 123.3
308.15 K, x1 = 0.1 | 1152 | 138.1
308.15 K, x1 = 0.1966 | 1167.6 | 168.4
308.15 K, x1 = 0.3059 | 1178.2 | 203.2
308.15 K, x1 = 0.4061 | 1184.7 | 234.8
308.15 K, x1 = 0.5025 | 1189.2 | 265.1
308.15 K, x1 = 0.5889 | 1192.3 | 292.4
308.15 K, x1 = 0.6844 | 1195 | 322.2
308.15 K, x1 = 0.7832 | 1197.4 | 352.9
308.15 K, x1 = 0.8654 | 1199 | 378.7
308.15 K, x1 = 0.9289 | 1200 | 398.7
313.15 K, x1 = 0.0522 | 1134.1 | 123.8
313.15 K, x1 = 0.1 | 1146.5 | 138.7
313.15 K, x1 = 0.1966 | 1162.8 | 169.1
313.15 K, x1 = 0.3059 | 1173.9 | 204.1
313.15 K, x1 = 0.4061 | 1180.6 | 235.9
313.15 K, x1 = 0.5025 | 1185.3 | 266.3
313.15 K, x1 = 0.5889 | 1188.6 | 293.8
313.15 K, x1 = 0.6844 | 1191.5 | 323.9
313.15 K, x1 = 0.7832 | 1193.9 | 354.7
313.15 K, x1 = 0.8654 | 1195.6 | 380.8
313.15 K, x1 = 0.9289 | 1196.6 | 400.8
318.15 K, x1 = 0.0522 | 1128.1 | 124.2
318.15 K, x1 = 0.1 | 1141 | 139.1
318.15 K, x1 = 0.1966 | 1158 | 169.7
318.15 K, x1 = 0.3059 | 1169.5 | 205
318.15 K, x1 = 0.4061 | 1176.6 | 237
318.15 K, x1 = 0.5025 | 1181.5 | 267.4
318.15 K, x1 = 0.5889 | 1184.9 | 295.3
318.15 K, x1 = 0.6844 | 1187.9 | 325.6
318.15 K, x1 = 0.7832 | 1190.4 | 356.5
318.15 K, x1 = 0.8654 | 1192.2 | 382.8
318.15 K, x1 = 0.9289 | 1193.3 | 403

Reference: the NIST ThermoML archive (doi:10.1016/j.jct.2008.09.002)
